Data reported in patent US7335500B2, “Production of fucosylated carbohydrates by enzymatic fucosylation synthesis of sugar nucleotides; and in situ regeneration of GDP-fucose” (The Scripps Research Institute, priority 1991, dated 2008).
Where two headings read alike, the source gives them in different places.

Columns and labels:
[1] = target: T1, human plasma type α1,3FucT (Homo sapiens, UniProt Q11128); experiment: Substrate specificity and inhibition study of α1,3FucT (GDP-14C-Fuc transfer assay); assay type: biochemical; settings: for IC50 / Vrel (relative maximal velocities) / Km: 0.1 mM GDP-Fuc; for IC50: 10 mM Mn2+ and 10 mM LacNAc at pH 6.2 and 37° C.; for inhibition in combination with GDP: GDP present at its IC50 of 0.05 mM, FIG. 3: 34 mM Compound 50, 0.2 mM 14C-GDP-fucose, 20 mM MnCl2, pH 6.2; for mode of inhibition: versus LacNAc; for Vrel (relative maximal velocities): 10 mM MnCl2 and 10 mM Galβ1,4GlcNAc, Galβ1,4GlcNAc = 100; for Km: acceptor substrate, 10 mM MnCl2; for relative maximum velocity (Vrel) based on LacNAc: relative rate at Vmax
T1 sequence (Q11128 1-374): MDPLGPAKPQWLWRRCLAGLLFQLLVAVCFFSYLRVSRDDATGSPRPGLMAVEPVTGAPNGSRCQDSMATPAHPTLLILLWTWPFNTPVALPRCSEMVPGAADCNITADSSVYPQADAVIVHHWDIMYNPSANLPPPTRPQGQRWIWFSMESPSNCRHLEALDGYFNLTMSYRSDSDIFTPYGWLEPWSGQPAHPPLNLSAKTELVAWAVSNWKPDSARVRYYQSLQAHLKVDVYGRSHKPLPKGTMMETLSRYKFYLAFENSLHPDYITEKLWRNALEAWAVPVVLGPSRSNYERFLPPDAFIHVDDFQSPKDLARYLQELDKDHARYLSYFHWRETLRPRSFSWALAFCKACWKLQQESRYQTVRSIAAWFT
Method: (§1) The assay procedure was essentially the same as described previously [Fukowska-Latallo et al, Gene & Development, 4:1288 (1990)] with some modifications. A stock mixture containing 0.25 mM GDP-^14C-Fuc (5000 cpm/mL), 6.25 mM ATP, 25 mM MnCl2 and 62.5 mM sodium cacodylate buffer, pH 6.2 was mixed freshly and kept on ice. […] The incubation was carried out at 37° C. for 30 to 240 minutes depending upon the acceptor under study. Separate assays in the absence of acceptor were used to correct for background hydrolysis of GDP-Fuc. Upon completion of incubation, 400 μL of a 25 percent (v/v) suspension of QAE-Sephadex was added. […] From the supernatant fluid, 200 μL were extracted and mixed with 10 mL of scintillation cocktail. The radioactivity was counted on a scintillation counter. […] This assay can be run in the absence of ATP.

GalT [2] = target: T2, GalT (Bos taurus, UniProt P08037); settings: cited from earlier work
T2 construct: purchased Sigma
T2 sequence (P08037 79-402 limits assumed): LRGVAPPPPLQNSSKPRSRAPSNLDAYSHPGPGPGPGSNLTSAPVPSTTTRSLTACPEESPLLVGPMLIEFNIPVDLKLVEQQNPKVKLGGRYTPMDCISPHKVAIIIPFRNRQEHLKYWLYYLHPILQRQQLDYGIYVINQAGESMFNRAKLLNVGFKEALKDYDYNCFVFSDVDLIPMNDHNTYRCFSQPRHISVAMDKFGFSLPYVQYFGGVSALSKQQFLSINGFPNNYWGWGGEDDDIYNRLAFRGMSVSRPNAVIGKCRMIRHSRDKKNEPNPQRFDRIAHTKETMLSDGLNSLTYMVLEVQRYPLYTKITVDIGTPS

α1,3/4Fucosyltransferase = target: T3, α1,3/4Fucosyltransferase (Homo sapiens, UniProt P21217); experiment: Substrate specificity and inhibition study of α1,3/4FucT (GDP-14C-Fuc transfer assay); assay type: biochemical; settings: for Vrel (relative velocities): 0.20 mM GDP-Fuc, 20 mM MnCl2, 10 mM acceptor, Galβ1,4GlcNAc = 100
T3 sequence (P21217 1-361): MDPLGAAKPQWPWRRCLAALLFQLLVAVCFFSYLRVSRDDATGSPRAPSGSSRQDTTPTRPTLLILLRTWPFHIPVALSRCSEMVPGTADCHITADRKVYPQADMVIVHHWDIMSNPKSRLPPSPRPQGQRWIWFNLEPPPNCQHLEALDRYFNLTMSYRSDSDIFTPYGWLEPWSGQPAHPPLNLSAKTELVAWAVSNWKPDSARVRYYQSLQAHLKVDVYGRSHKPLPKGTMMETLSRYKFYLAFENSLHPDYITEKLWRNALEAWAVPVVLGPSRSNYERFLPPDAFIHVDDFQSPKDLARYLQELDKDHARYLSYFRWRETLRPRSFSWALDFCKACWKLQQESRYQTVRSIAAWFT
Method: as §1

GalT [3] = target: T2, GalT; experiment: Kinetic study of GalT (rate of LacNAc formation, UDP-14C-Gal); assay type: biochemical; settings: 100 mM cacodylate pH 7.5, 9.3 mM Mn2+, 0.1 mM UDP-Gal, 20° C.
Method: Initial velocities of the enzyme reaction were determined by measuring the rate of LacNAc formation with a slight modification of the assay by Pierce et al. [Pierce et al., Anal. Biochem., 102:441 (1980)]. All the reactions were carried out in 100 mM cacodylate buffer (pH 7.5) with fixed concentrations of Mn^2+ (9.3 mm) and UDP-Gal (0.1 mM; 58.5 cpm/pmol of UDP-^14C-Gal) in […] of solution. The reaction was initiated by the addition of GalT (0.05 U, […]; from Sigma) and permitted to stand at 20° C. for 30 minutes. Nonspecific hydrolysis of UDP-Gal was measured by the control reaction in the absence of GalT. The reaction was stopped by passing through a column of QAE-Sephadex ([…]), and eluted by gentle air pressure to remove the unreacted UDP-Gal. The reaction vial was rinsed twice with […] of water each and passed through the resin column. The filtrates were collected and directly transferred into a scintillation vial. The scintillation fluid was added to the vial, and then radioactivity was counted by a liquid scintillation counter. […] Res., 159:315 (1987)] and Ki (0.46±0.06 mM) for UDP. Similarly, IC50 value of UDP for GalT was determined using different concentration of UDP.

IC50 [1]	Vrel (relative velocities) (α1,3/4Fucosyltransferase)	Vrel (relative maximal velocities) [1]	Compound	also measured
> 50 mM	580	130	CC(=O)N[C@H]1C(O)O[C@H](CO)[C@@H](O)[C@@H]1O[C@@H]1O[C@H](CO)[C@H](O)[C@H](O)[C@H]1O (stereo partly shown) [Galβ1,3GlcNAc]	–
–	310	51	OC[C@H]1O[C@@H](O[C@H]2[C@H](O)[C@@H](O)C(O)S[C@@H]2CO)[C@H](O)[C@@H](O)[C@H]1O (stereo partly shown) [Galβ1,4(5-thioGlc), Galβ1,4(5-thio)Glc]	Km [1]: 12 mM
–	27	–	CC(=O)N[C@H]1C(O)O[C@H](CO)[C@H](O[C@@H]2O[C@H](CO)[C@H](O)[C@H](O)[C@H]2O)[C@@H]1O (stereo partly shown) [Galβ1,4GalNAc]	–
–	120	150	OC[C@H]1O[C@@H](O[C@H]2[C@H](O)[C@@H](O)C(O)O[C@@H]2CO)[C@H](O)[C@@H](O)[C@H]1O (stereo partly shown) [Galβ1,4Glc]	relative maximum velocity (Vrel) based on LacNAc [1]: 150%
8 mM	–	–	OC[C@H]1NC[C@H](O)[C@@H](O)[C@@H]1O[C@@H]1O[C@H](CO)[C@H](O)[C@H](O)[C@H]1O [Galβ1,4deoxynojirimycin]	IC50 (α1,3/4Fucosyltransferase; inhibitor concentration required to give 50% inhibition with 0.2 mM GDP-Fuc): 40 mM
> 50 mM	23	–	CC(=O)N[C@H]1[C@H](O[C@H]2[C@H](O)[C@@H](NC(C)=O)C(O)O[C@@H]2CO)O[C@H](CO)[C@@H](O)[C@@H]1O (stereo partly shown) [GlcNAcβ1,4GlcNAc]	–
–	13	–	CC(=O)N[C@H]1[C@H](OC[C@H]2O[C@@H](O[C@H]3[C@H](O)[C@@H](O)C(O)O[C@@H]3CO)[C@H](O)[C@@H](O)[C@H]2O)O[C@H](CO)[C@@H](O)[C@@H]1O (stereo partly shown) [GlcNAcβ1,6Galβ1,4Glc]	–
–	–	330	CC(=O)N[C@H]1C([C@H](O)[C@H](O)CO)O[C@@](OC2[C@H](O)C(O[C@H]3C(O)C=COC3CO)OC(CO)[C@@H]2O)(C(=O)O)C[C@H]1O (stereo partly shown) [NeuAcα2,3Galβ1,4Glucal]	Km [1]: 64 mM; relative maximum velocity (Vrel) based on LacNAc [1]: 330%
–	–	13	CC(=O)N[C@@H]1[C@@H](O)[C@H](O[C@@H]2O[C@H](CO[C@]3(C(=O)O)C[C@H](O)[C@@H](NC(C)=O)[C@H]([C@H](O)[C@H](O)CO)O3)[C@H](O)[C@H](O)[C@H]2O)[C@@H](CO)O[C@H]1O [NeuAcα2,6Galβ1,4GlcNAc]	Km [1]: 70 mM; times less active as a substrate than the α2,3-isomer ([1]; compared with NeuAcα2,3Galβ1,4GlcNAc): about 50 times

Continued, compound first:

Compound	IC50 [1]	Vrel (relative velocities) (α1,3/4Fucosyltransferase)	Vrel (relative maximal velocities) [1]	also measured
OCC1N[C@@H](CO)C(O)[C@@H]1O (stereo partly shown)	52 mM	–	–	–
CC1N[C@@H](CO)C(O)[C@@H]1O (stereo partly drawn) [Compound 50, (2R)-Methyl-(5S)-hydroxymethyl-(3R, 4R)-dihydroxyprollidine]	34 mM	–	–	inhibition in combination with GDP [1]: profound, synergistic inhibition; mode of inhibition [1]: competitive inhibitor
CC1NC(CO)C(O)C1O (stereo not shown) [Compound 53]	80 mM	–	–	inhibition in combination with GDP [1]: profound, synergistic inhibition; mode of inhibition [1]: competitive inhibitor
OC[C@H]1NC[C@H](O)[C@@H](O)[C@@H]1O [Deoxynojirimycin]	–	–	–	substrate for α1,4GalT (in words) (GalT [2]; Wong et al., J. Am. Chem. Soc., 113:8137-8145 (1991)): a substrate
Nc1nc2c(ncn2[C@@H]2O[C@H](COP(=O)(O)OP(=O)(O)O)[C@@H](O)[C@H]2O)c(=O)[nH]1 [GDP, guanosine 5′-diphosphate]	0.05 mM	–	–	Ki ([1]; footnote of Table 3, read-out: Ki): 19 mM; Ki ([1]; noncompetitive inhibitor versus LacNAc, read-out: Kii): 0.13 mM; Ki ([1]; noncompetitive inhibitor versus LacNAc, read-out: Kis): 0.16 mM; mode of inhibition [1]: noncompetitive inhibitor
C[C@@H]1OC(OP(=O)(O)OP(=O)(O)OC[C@H]2O[C@@H](n3cnc4c(=O)[nH]c(N)nc43)[C@H](O)[C@@H]2O)[C@@H](O)[C@H](O)[C@@H]1O (stereo partly shown) [GDP-Fuc, guanosine 5′-diphospho fucose]	–	–	–	inhibition of α1,3/4FucT (in words) (α1,3/4Fucosyltransferase): not an inhibitor; inhibition of α1,3FucT (in words) ([1]; at concentration above 0.2 mM in the presence of 10 mM LacNAc): potent inhibitor
Nc1nc2c(ncn2C2OC(COP(=O)(O)OP(=O)(O)OC3OC(CO)C(O)C(O)C3O)C(O)C2O)c(=O)[nH]1 (stereo not shown) [GDP-Man, guanosine 5′-diphospho-mannose]	2 mM	–	–	–
CC(=O)N[C@H]1C(O)O[C@H](CO)[C@H](O)[C@@H]1O[C@@H]1O[C@H](CO)[C@H](O)[C@H](O)[C@H]1O (stereo partly shown) [Galβ1,3GalNAc]	> 100 mM	–	–	–
C=CCO[C@@H]1O[C@H](CO)[C@@H](O[C@@H]2O[C@H](CO)[C@H](O)[C@H](O)[C@H]2O)C[C@H]1NC(C)=O [Galβ1,4(3-deoxy)GlcNAcβOallyl]	–	–	–	inhibition of α1,3FucT (in words) ([1]; acceptor substrate analog): weak inhibitor
C=CCO[C@@H]1O[C@H](CO)[C@@H](O[C@@H]2O[C@H](CO)[C@H](O)[C@H](O)[C@H]2O)[C@H](O)[C@H]1NC(C)=O [Galβ1,4GlcNAcβOallyl]	–	–	64	Km [1]: 16 mM
CC(=O)N[C@H]1C(O)O[C@H](CO)[C@@H](O)[C@@H]1O (stereo partly shown) [GlcNAc, N-acetylglucosamine]	–	–	–	Km (GalT [2]; reported in Palcic et al., Carbohydr. Res., 159:315 (1987)): 1.3 ± 1 mM
CC(=O)NC1C(O)OC(CO)C(OC2OC(CO)C(O)C(OC3(C(=O)O)CC(O)C(NC(C)=O)C(C(O)C(O)CO)O3)C2O)C1O (stereo not shown) [NeuAcα2,3Galβ1,4GlcNAc]	–	60	620	Km [1]: 100 mM; relative maximum velocity (Vrel) based on LacNAc [1]: 620%
O=c1ccn([C@@H]2O[C@H](COP(=O)(O)OP(=O)(O)O)[C@@H](O)[C@H]2O)c(=O)[nH]1 [UDP, uridine 5′-diphosphate]	–	–	–	Ki (GalT [3]): 0.46 mM
Fucα1,2Galβ1,4Glc	–	250	–	–
Galβ1,4GlcNAc	–	100	100	Km [1]: 35 mM
NeuAcα2,3Galβ1,4GlcNAcβOallyl	–	–	380	–
